The values below are quoted from earlier work in patent publication US9642862B2, “Methods for treating chronic or unresolvable pain and/or increasing the pain threshold in a subject and pharmaceutical compositions for use therein” (White Mountain Pharma, Inc., priority 2010, dated 2017).

Data set [1] concerns chronic pain subjects. Conditions: four subjects, adjunctive to primary opioid therapy, anecdotal.
For data set [2], the system named is female-to-male transsexuals. Conditions: doses at or above the male reference range.
Data set [3] has as its system rats. Conditions: formalin test, treatment with testosterone.
The subject of data set [4] is ovariectomized female rats.

On to `C[C@]12CC[C@H]3[C@@H](CCC4=CC(=O)CC[C@@]43C)[C@@H]1CC[C@@H]2O` [testosterone], for which, in data set [1], the quality of life entry is given as “improved”. In data set [2], the side effects entry was “develop hirsutism and male-like increased risk for cardiovascular disease and diabetes”. Besides, in data set [3], the pain responses entry is “decreased”.

Consider estrogen, for which, in data set [4], the “spinal cord enkephalin transcription” value is given as “increase”.
